Results from paper PMC7154863, “The First Case of Glyphosate Resistance in Johnsongrass (Sorghum halepense (L.) Pers.) in Europe” (Plants, 2020).
pIC50: −log10 of the molar value.

Tested on: T1, 5-enolpyruvylshikimate-3-phosphate synthase (EPSPS)
T1 construct: native enzyme in leaf extract, not purified to homogeneity; partial EPSPS2 cDNA (543-bp fragment) without Pro106 or Thr102 substitution
Assay: EnzCheck phosphate release assay, leaf extract, log-logistic fit
Format: biochemical, Sorghum halepense
Conditions: range of estimates over seven populations without significant differences: 2.6 (GR6), 3.4 (GR1); the others only in the figure; glyphosate 0-1000 µM; 360 nm, 10 min; read-out: I50

For `O=C(O)CNCP(=O)(O)O` [glyphosate], the pIC50 was 5.47 to 5.59.
